From patent US7691844B2, “Nonpeptide substituted spirobenzoazepines as vasopressin antagonists” (Ortho-McNeil Pharmaceutical, Inc., priority 2000, dated 2010) come the findings set out here.

SMILES strings stand for the structures.

For one experiment, the target named is V1a (Homo sapiens, UniProt P37288). Description: In-vitro receptor binding assay (3H-arginine-8-vasopressin), V1a. The note with it: for Receptor Binding V1a (% Inh. @ concentration in μM) / inhibition at 0.1 µM: @ 0.1 μM; for inhibition at 0.1 µM: read-out: Receptor Binding V1a (% Inh. @ concentration in μM). The method, then:
(§1) (A) In-Vitro Binding Assay […] The reaction plates are allowed to sit at room temperature for one hour. The samples are filtered through Unifilter GF/C plates (presoaked in 0.3 polyethyleneimine). The plates are washed 5 times with cold physiological saline containing 0.05% Tween 20. After drying, the bottom of the filter plates are sealed and 0.025 ml of Microscint-20 is added to each filter. The top of the plate is sealed, and the plate is counted. Non-specific binding is determined by the addition of 1.25 μM […]-vasopressin in those wells. % Inh. is calculated as follows: […]

For the next experiment, the target named is human V2 receptor (Homo sapiens, UniProt P30518). Description: In-vitro receptor binding assay (3H-arginine-8-vasopressin), V2. As to conditions: for inhibition at 0.1 µM: read-out: Receptor Binding V2 (% Inh. @ concentration in μM); for inhibition at 0.1 µM / Receptor Binding V2 (% Inh. @ concentration in μM): @ 0.1 μM. As to the method:
as §1

V1a, sequence (P37288 whole entry): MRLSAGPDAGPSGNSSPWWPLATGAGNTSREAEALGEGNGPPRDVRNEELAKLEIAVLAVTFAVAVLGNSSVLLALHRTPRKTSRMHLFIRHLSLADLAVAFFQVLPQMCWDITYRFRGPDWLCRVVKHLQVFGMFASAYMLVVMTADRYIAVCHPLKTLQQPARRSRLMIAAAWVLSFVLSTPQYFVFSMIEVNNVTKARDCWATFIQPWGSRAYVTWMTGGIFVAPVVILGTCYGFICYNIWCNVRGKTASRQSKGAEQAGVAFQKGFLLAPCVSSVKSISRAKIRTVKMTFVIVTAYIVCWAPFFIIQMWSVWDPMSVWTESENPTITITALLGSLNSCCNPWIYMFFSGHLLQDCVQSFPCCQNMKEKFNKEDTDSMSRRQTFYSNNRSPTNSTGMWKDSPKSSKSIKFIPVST
human V2 receptor, sequence (P30518 whole entry): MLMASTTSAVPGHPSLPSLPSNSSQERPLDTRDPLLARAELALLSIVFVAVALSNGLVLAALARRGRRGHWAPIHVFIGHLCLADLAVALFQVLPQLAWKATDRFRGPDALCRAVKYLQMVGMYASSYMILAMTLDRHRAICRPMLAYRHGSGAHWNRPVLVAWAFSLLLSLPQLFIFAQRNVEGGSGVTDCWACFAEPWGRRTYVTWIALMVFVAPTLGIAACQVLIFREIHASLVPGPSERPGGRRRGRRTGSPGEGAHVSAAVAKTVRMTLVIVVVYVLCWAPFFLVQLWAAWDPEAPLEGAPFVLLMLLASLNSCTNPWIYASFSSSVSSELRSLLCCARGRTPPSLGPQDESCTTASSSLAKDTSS

By IC50 is commonly meant the midpoint of a concentration-inhibition curve. Read a high IC50 as a need for much substance. On to `Cc1ccc(-c2ccccc2C(=O)Nc2ccc(C(=O)N3CCC4(C=CCCC4)Cc4ccccc43)c(Cl)c2)cc1` (stereo not drawn) [Compound 117], for which the “Receptor Binding V1a (% Inh. @ concentration in μM)” value on V1a worked out at 30% @ 0.1. Moreover, on human V2 receptor, the IC50 is 0.1 µM.
For the compound `O=C(Nc1ccc(C(=O)N2CCC3(C=CCCC3)Cc3ccccc32)c(Cl)c1)c1ccccc1-c1ccccc1` (stereo not drawn) [Compound 118], the inhibition at 0.1 µM at V1a amounted to 40%. Also, the IC50 at human V2 receptor worked out at 0.085 µM.
For `O=C(Nc1ccc(C(=O)N2Cc3ccccc3CC3(C=CCCC3)C2)cc1)c1ccccc1F` (stereo not drawn) [Compound 128, 4-(2-Fluorobenzoyl-4-aminobenzoyl)-3-aza-[6,5]-spiro-[5,6]-benzododec-2′-ene], the IC50 on V1a is 0.042 µM. Further, the inhibition at 0.1 µM at human V2 receptor was 33%.
`O=C(Nc1ccc(C(=O)C2Cc3ccccc3CC3(C=CCCC3)C2)cc1)c1ccccc1-c1ccccc1` (stereo not drawn) [Compound 129]: the “Receptor Binding V1a (% Inh. @ concentration in μM)” value on V1a was 30% @ 0.1. Also, the “Receptor Binding V2 (% Inh. @ concentration in μM)” value on human V2 receptor came out at 9% @ 0.1.
In turn, `Cc1ccccc1C(=O)Nc1ccc(C(=O)C2Cc3ccccc3CC3(C=CCCC3)C2)cc1` (stereo not drawn) [Compound 130] had an IC50 on V1a of 0.047 µM. Besides, the “Receptor Binding V2 (% Inh. @ concentration in μM)” value on human V2 receptor stood at 15% @ 0.1.
In the same order, the values of `Cc1ccc(F)cc1C(=O)Nc1ccc(C(=O)C2Cc3ccccc3CC3(C=CCCC3)C2)cc1` (stereo not drawn) [Compound 131] are 0.1 µM and 3% @ 0.1.
The compound `COC(=O)C1=CC2(CC1)CCN(C(=O)c1ccc(NC(=O)c3ccccc3F)cc1)c1ccccc1C2` (stereo not drawn) [Compound 133] registered a concentration for half-maximal inhibition (IC50) on V1a of 0.015 µM. Also, the inhibition at 0.1 µM at human V2 receptor is 23%.
On to `COC(=O)C1=CC2(CC1)CCN(C(=O)c1ccc(N)cc1)c1ccccc1C2` (stereo not drawn) [Compound 134], for which the inhibition at 0.1 µM at V1a was 21%; on human V2 receptor, 16%.
For the compound `O=C(NCCN1CCCC1)C1=CC2(CC1)CCN(C(=O)c1ccc(NC(=O)c3ccccc3-c3ccccc3)cc1)c1ccccc1C2` (stereo not drawn) [Compound 135], the results for the IC50 on V1a and at human V2 receptor were 0.013 µM and 0.024 µM, respectively.
As for `Cc1ccc(F)cc1C(=O)Nc1ccc(C(=O)N2CCC3(C=C(C(=O)NCCN(C)C)CC3)Cc3ccccc32)c(Cl)c1` (stereo not drawn) [Compound 136], at V1a, the inhibition at 0.1 µM stood at 60%. The compound further had an IC50 on human V2 receptor of 0.052 µM.
As for `Cc1ccc(F)cc1C(=O)Nc1ccc(C(=O)N2CCC3(C=C(CO)CC3)Cc3ccccc32)c(Cl)c1` (stereo not drawn) [Compound 137], the inhibition at 0.1 µM is 53% on V1a and 66% at human V2 receptor.
Regarding `Cc1ccc(F)cc1C(=O)Nc1ccc(C(=O)N2CCC3(C=C(C=O)CC3)Cc3ccccc32)c(Cl)c1` (stereo not drawn) [Compound 138], the inhibition at 0.1 µM on V1a is 35%; at human V2 receptor, 57%.
The like results for `CNCC1=CC2(CC1)CCN(C(=O)c1ccc(NC(=O)c3cc(F)ccc3C)cc1Cl)c1ccccc1C2` (stereo not drawn) [Compound 139] were, in that order, 0% and 17%.
The like results for `COCCN1CCN(CC2=CC3(CC2)CCN(C(=O)c2ccc(NC(=O)c4cc(F)ccc4C)cc2Cl)c2ccccc2C3)CC1` (stereo not drawn) [Compound 140] were, in that order, 41% and 65%.
For the compound `Cc1ccc(F)cc1C(=O)Nc1ccc(C(=O)N2CCC3(C=C(CN4CCN(CCN5CCOCC5)CC4)CC3)Cc3ccccc32)c(Cl)c1` (stereo not drawn) [Compound 141], the inhibition at 0.1 µM at V1a was determined as 44%. In addition, on human V2 receptor, the IC50 was 0.056 µM.
For `Cc1ccc(F)cc1C(=O)Nc1ccc(C(=O)N2CCC3(C=C(CN4CCN(c5ccncc5)CC4)CC3)Cc3ccccc32)c(Cl)c1` (stereo not drawn) [Compound 142], the inhibition at 0.1 µM at V1a was 25%; on human V2 receptor, 69%.
In the same order, the values of `Cc1ccc(F)cc1C(=O)Nc1ccc(C(=O)N2CCC3(C=C(C(=O)O)CC3)Cc3ccccc32)c(Cl)c1` (stereo not drawn) [Compound 143] are 10% and 67%.
Take `O=CC1=C[C@@]2(CC1)CCN(C(=O)c1ccc(NC(=O)c3ccccc3F)cc1Cl)c1ccccc1C2` [Compound 144]: on V1a, the IC50 was found to be 0.008 µM. For the same compound, at human V2 receptor, the inhibition at 0.1 µM is 9%.
